# Measured values reported in PubChem BioAssay (NCI).
#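 48-hour exposure; five concentrations; linearly interpolated endpoints. Abbreviation: GI50, concentration required for 50% inhibition of growth. TGI marks complete inhibition of growth.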
# Assays:
# Assay in all cases: growth of human tumour cells (NCI), 48 h
# 786-0 renal = system: 786-0 renal
# A549 NSCLC = system: A549 NSCLC
# ACHN renal = system: ACHN renal
# COLO 205 colon = system: COLO 205 colon
# DU-145 prostate = system: DU-145 prostate
# EKVX NSCLC = system: EKVX NSCLC
# HCC-2998 colon = system: HCC-2998 colon
# HCT-116 colon = system: HCT-116 colon
# HCT-15 colon = system: HCT-15 colon
# HOP-62 NSCLC = system: HOP-62 NSCLC
# HT29 colon = system: HT29 colon
# K-562 leukemia = system: K-562 leukemia
# M14 melanoma = system: M14 melanoma
# MALME-3M melanoma = system: MALME-3M melanoma
# MDA-MB-231 breast = system: MDA-MB-231 breast
# MDA-MB-435 = system: MDA-MB-435
# MDA-N = system: MDA-N
# NCI-H226 lung = system: NCI-H226 lung
# NCI-H460 lung = system: NCI-H460 lung
# OVCAR-3 ovarian = system: OVCAR-3 ovarian
# OVCAR-4 ovarian = system: OVCAR-4 ovarian
# OVCAR-5 ovarian = system: OVCAR-5 ovarian
# PC-3 prostate = system: PC-3 prostate
# SF-295 CNS = system: SF-295 CNS
# SK-MEL-2 melanoma = system: SK-MEL-2 melanoma
# SK-MEL-28 melanoma = system: SK-MEL-28 melanoma
# SK-MEL-5 melanoma = system: SK-MEL-5 melanoma
# SK-OV-3 ovarian = system: SK-OV-3 ovarian
# SNB-19 CNS = system: SNB-19 CNS
# TK-10 renal = system: TK-10 renal
# U251 CNS = system: U251 CNS
# UACC-62 melanoma = system: UACC-62 melanoma
# UO-31 renal = system: UO-31 renal
# A498 renal = system: A498 renal
# BT-549 breast = system: BT-549 breast
# CAKI-1 renal = system: CAKI-1 renal
# CCRF-CEM leukemia = system: CCRF-CEM leukemia
# HL-60(TB) leukemia = system: HL-60(TB) leukemia
# HOP-92 NSCLC = system: HOP-92 NSCLC
# HS 578T breast = system: HS 578T breast
# IGROV1 ovarian = system: IGROV1 ovarian
# KM12 colon = system: KM12 colon
# LOX IMVI melanoma = system: LOX IMVI melanoma
# MCF7 breast = system: MCF7 breast
# MOLT-4 leukemia = system: MOLT-4 leukemia
# NCI-H23 lung = system: NCI-H23 lung
# NCI-H522 lung = system: NCI-H522 lung
# NCI/ADR-RES ovarian = system: NCI/ADR-RES ovarian
# OVCAR-8 ovarian = system: OVCAR-8 ovarian
# RPMI-8226 leukemia = system: RPMI-8226 leukemia
# RXF 393 renal = system: RXF 393 renal
# SF-268 CNS = system: SF-268 CNS
# SF-539 CNS = system: SF-539 CNS
# SN12C renal = system: SN12C renal
# SNB-75 CNS = system: SNB-75 CNS
# SR leukemia = system: SR leukemia
# SW-620 colon = system: SW-620 colon
# T-47D breast = system: T-47D breast
# UACC-257 melanoma = system: UACC-257 melanoma
structure (smiles),measurement,setting,value
COC(=O)c1cc2c3c(cc(NCCN)c2[nH]1)N(C(=O)c1cc2cc(OC)c(OC)c(OC)c2[nH]1)CC3CCl (centres undefined),TGI,786-0 renal,0.283 µM
same,TGI,A549 NSCLC,0.481 µM
same,TGI,ACHN renal,0.251 µM
same,TGI,COLO 205 colon,146 nM
same,TGI,DU-145 prostate,51.6 nM
same,TGI,EKVX NSCLC,827 nM
same,TGI,HCC-2998 colon,0.182 µM
same,TGI,HCT-116 colon,0.0256 µM
same,TGI,HCT-15 colon,1.42 µM
same,TGI,HOP-62 NSCLC,0.48 µM
same,TGI,HT29 colon,213 nM
same,TGI,K-562 leukemia,> 100 µM
same,TGI,M14 melanoma,0.253 µM
same,TGI,MALME-3M melanoma,0.123 µM
same,TGI,MDA-MB-231 breast,0.467 µM
same,TGI,MDA-MB-435,293 nM
same,TGI,MDA-N,207 nM
same,TGI,NCI-H226 lung,0.178 µM
same,TGI,NCI-H460 lung,0.536 µM
same,TGI,OVCAR-3 ovarian,0.569 µM
same,TGI,OVCAR-4 ovarian,310 nM
same,TGI,OVCAR-5 ovarian,420 nM
same,TGI,PC-3 prostate,1.01 µM
same,TGI,SF-295 CNS,0.858 µM
same,TGI,SK-MEL-2 melanoma,0.164 µM
same,TGI,SK-MEL-28 melanoma,480 nM
same,TGI,SK-MEL-5 melanoma,0.165 µM
same,TGI,SK-OV-3 ovarian,5.12 µM
same,TGI,SNB-19 CNS,51.7 nM
same,TGI,TK-10 renal,2950 nM
same,TGI,U251 CNS,0.0366 µM
same,TGI,UACC-62 melanoma,0.176 µM
same,TGI,UO-31 renal,0.65 µM
Oc1ccc(Cc2ccccc2)c2cccnc12,GI50,786-0 renal,2040 nM
same,TGI,786-0 renal,6.57 µM
same,GI50,A498 renal,25.6 µM
same,TGI,A498 renal,> 100 µM
same,GI50,A549 NSCLC,4.21 µM
same,TGI,A549 NSCLC,71.9 µM
same,GI50,ACHN renal,1210 nM
same,TGI,ACHN renal,9.53 µM
same,GI50,BT-549 breast,2330 nM
same,TGI,BT-549 breast,26.7 µM
same,GI50,CAKI-1 renal,2220 nM
same,TGI,CAKI-1 renal,8.96 µM
same,GI50,CCRF-CEM leukemia,423 nM
same,TGI,CCRF-CEM leukemia,5.44 µM
same,GI50,COLO 205 colon,7.74 µM
same,TGI,COLO 205 colon,> 100000 nM
same,GI50,DU-145 prostate,2580 nM
same,TGI,DU-145 prostate,> 100000 nM
same,GI50,EKVX NSCLC,2320 nM
same,TGI,EKVX NSCLC,> 100000 nM
same,GI50,HCC-2998 colon,3.65 µM
same,TGI,HCC-2998 colon,16.6 µM
same,GI50,HCT-116 colon,1790 nM
same,TGI,HCT-116 colon,21.5 µM
same,GI50,HCT-15 colon,507 nM
same,TGI,HCT-15 colon,44.9 µM
same,GI50,HL-60(TB) leukemia,1560 nM
same,TGI,HL-60(TB) leukemia,6.65 µM
same,GI50,HOP-62 NSCLC,2030 nM
same,TGI,HOP-62 NSCLC,80.6 µM
same,GI50,HOP-92 NSCLC,1020 nM
same,TGI,HOP-92 NSCLC,39.6 µM
same,GI50,HS 578T breast,> 100 µM
same,TGI,HS 578T breast,> 100 µM
same,GI50,HT29 colon,22.5 µM
same,TGI,HT29 colon,> 100000 nM
same,GI50,IGROV1 ovarian,2200 nM
same,TGI,IGROV1 ovarian,32.8 µM
same,GI50,K-562 leukemia,836 nM
same,TGI,K-562 leukemia,> 100 µM
same,GI50,KM12 colon,2070 nM
same,TGI,KM12 colon,27 µM
same,GI50,LOX IMVI melanoma,1530 nM
same,TGI,LOX IMVI melanoma,19 µM
same,GI50,M14 melanoma,1510 nM
same,TGI,M14 melanoma,10.6 µM
same,GI50,MALME-3M melanoma,2960 nM
same,TGI,MALME-3M melanoma,31.6 µM
same,GI50,MCF7 breast,7.46 µM
same,TGI,MCF7 breast,> 100 µM
same,GI50,MDA-MB-231 breast,4.36 µM
same,TGI,MDA-MB-231 breast,27.4 µM
same,GI50,MDA-MB-435,1830 nM
same,TGI,MDA-MB-435,> 100000 nM
same,GI50,MOLT-4 leukemia,1410 nM
same,TGI,MOLT-4 leukemia,93.8 µM
same,GI50,NCI-H226 lung,13.8 µM
same,TGI,NCI-H226 lung,67.5 µM
same,GI50,NCI-H23 lung,2900 nM
same,TGI,NCI-H23 lung,57.1 µM
same,GI50,NCI-H460 lung,1610 nM
same,TGI,NCI-H460 lung,17.3 µM
same,GI50,NCI-H522 lung,3.69 µM
same,TGI,NCI-H522 lung,76 µM
same,GI50,NCI/ADR-RES ovarian,490 nM
same,TGI,NCI/ADR-RES ovarian,13.3 µM
same,GI50,OVCAR-3 ovarian,6.7 µM
same,TGI,OVCAR-3 ovarian,37.6 µM
same,GI50,OVCAR-4 ovarian,6.35 µM
same,TGI,OVCAR-4 ovarian,> 100000 nM
same,GI50,OVCAR-5 ovarian,4.73 µM
same,TGI,OVCAR-5 ovarian,> 100000 nM
same,GI50,OVCAR-8 ovarian,2350 nM
same,TGI,OVCAR-8 ovarian,> 100 µM
same,GI50,PC-3 prostate,2700 nM
same,TGI,PC-3 prostate,67.4 µM
same,GI50,RPMI-8226 leukemia,1460 nM
same,TGI,RPMI-8226 leukemia,> 100 µM
same,GI50,RXF 393 renal,2300 nM
same,TGI,RXF 393 renal,19.2 µM
same,GI50,SF-268 CNS,2180 nM
same,TGI,SF-268 CNS,86.8 µM
same,GI50,SF-295 CNS,1340 nM
same,TGI,SF-295 CNS,20.5 µM
same,GI50,SF-539 CNS,1660 nM
same,TGI,SF-539 CNS,19.2 µM
same,GI50,SK-MEL-2 melanoma,12.7 µM
same,TGI,SK-MEL-2 melanoma,70.6 µM
same,GI50,SK-MEL-28 melanoma,10.3 µM
same,TGI,SK-MEL-28 melanoma,> 100000 nM
same,GI50,SK-MEL-5 melanoma,1520 nM
same,TGI,SK-MEL-5 melanoma,10.8 µM
same,GI50,SK-OV-3 ovarian,3.43 µM
same,TGI,SK-OV-3 ovarian,> 100 µM
same,GI50,SN12C renal,2610 nM
same,TGI,SN12C renal,> 100 µM
same,GI50,SNB-19 CNS,3.08 µM
same,TGI,SNB-19 CNS,> 100000 nM
same,GI50,SNB-75 CNS,14.7 µM
same,TGI,SNB-75 CNS,> 100 µM
same,GI50,SR leukemia,673 nM
same,TGI,SR leukemia,> 100 µM
same,GI50,SW-620 colon,3.39 µM
same,TGI,SW-620 colon,54.8 µM
same,GI50,T-47D breast,3.6 µM
same,TGI,T-47D breast,> 100 µM
same,GI50,TK-10 renal,2810 nM
same,TGI,TK-10 renal,> 100000 nM
same,GI50,U251 CNS,999 nM
same,TGI,U251 CNS,37.7 µM
same,GI50,UACC-257 melanoma,4.06 µM
same,TGI,UACC-257 melanoma,> 100 µM
same,GI50,UACC-62 melanoma,2320 nM
same,TGI,UACC-62 melanoma,6.04 µM
same,GI50,UO-31 renal,628 nM
same,TGI,UO-31 renal,9.34 µM
